Assay results published in paper PMC10436550, “Subacute toxicity evaluations of LPM3480392 in rats, a full µ-opioid receptor biased agonist” (Frontiers in Pharmacology, 2023).

Tested on: Sprague Dawley (SD) rats
Experiment: Organ weight and ratios, 4-week subacute toxicity study
Assay type: in vivo, rat
Experimental: Complete gross necropsies were conducted on all surviving animals at the end of treatment (the day after the last dosing) and recovery periods. The following selected organs were weighed and evaluated in terms of organ/body or organ/brain weight ratios: brain, kidneys, adrenals, testes, ovaries, uterus, epididymides, thymus, spleen, heart and liver. Paired organs were weighed together. Organ-to-body weight ratio = Organ weight(g)/Body weight(g) × 100%, and Organ-to-brain weight ratio = Organ weight(g)/Brain weight(g) × 100%.

[1] = female rats, 0.6 mg/kg/day, End of dosing phase
[2] = female rats, 0.6 mg/kg/day, End of recovery phase
[3] = female rats, 1.2 mg/kg/day, End of dosing phase
[4] = female rats, 1.2 mg/kg/day, End of recovery phase
[5] = female rats, 2.4 mg/kg/day, End of dosing phase
[6] = female rats, 2.4 mg/kg/day, End of recovery phase
[7] = male rats, 0.6 mg/kg/day, End of dosing phase
[8] = male rats, 0.6 mg/kg/day, End of recovery phase

Fc1ccc([C@]2(CCNCc3cccc(Cl)c3)CCO[C@]3(CCOC3)C2)nc1 [LPM3480392]
Organ weight, Brain [1]: 1.862 ± 0.102 g | Organ weight, Kidney [1]: 1.501 ± 0.123 g | Organ weight, Spleen [1]: 0.646 ± 0.159 g | Organ weight, Thymus [1]: 0.402 ± 0.053 g | Organ-to-body weight ratio, Brain [1]: 0.875 ± 0.063 % | Organ-to-body weight ratio, Kidney [1]: 0.704 ± 0.037% | Organ-to-body weight ratio, Spleen [1]: 0.301 ± 0.065% | Organ-to-body weight ratio, Thymus [1]: 0.189 ± 0.028% | Organ-to-brain weight ratio, Adrenal gland [1]: 3.21 ± 0.59% | Organ-to-brain weight ratio, Kidney [1]: 80.71 ± 6.29% | Organ-to-brain weight ratio, Spleen [1]: 34.73 ± 8.54% | Organ-to-brain weight ratio, Thymus [1]: 21.61 ± 3.02% | Terminal BW [1]: 213.5 ± 15.3 g | Organ weight, Brain [2]: 2.018 ± 0.046 g | Organ weight, Kidney [2]: 1.626 ± 0.142 g | Organ weight, Spleen [2]: 0.530 ± 0.085 g | Organ weight, Thymus [2]: 0.308 ± 0.055 g | Organ-to-body weight ratio, Brain [2]: 0.804 ± 0.031% | Organ-to-body weight ratio, Kidney [2]: 0.647 ± 0.043% | Organ-to-body weight ratio, Spleen [2]: 0.210 ± 0.030% | Organ-to-body weight ratio, Thymus [2]: 0.122 ± 0.019% | Organ-to-brain weight ratio, Adrenal gland [2]: 2.91 ± 0.20% | Organ-to-brain weight ratio, Kidney [2]: 80.51 ± 6.21% | Organ-to-brain weight ratio, Spleen [2]: 26.23 ± 4.03% | Organ-to-brain weight ratio, Thymus [2]: 15.21 ± 2.43% | Terminal BW [2]: 251.2 ± 9.7 g | Organ weight, Brain [3]: 1.916 ± 0.096 g | Organ weight, Kidney [3]: 1.518 ± 0.127 g | Organ weight, Spleen [3]: 0.637 ± 0.078 g | Organ weight, Thymus [3]: 0.380 ± 0.046 g | Organ-to-body weight ratio, Brain [3]: 0.881 ± 0.039 % | Organ-to-body weight ratio, Kidney [3]: 0.697 ± 0.044% | Organ-to-body weight ratio, Spleen [3]: 0.294 ± 0.042% | Organ-to-body weight ratio, Thymus [3]: 0.175 ± 0.026% | Organ-to-brain weight ratio, Adrenal gland [3]: 2.89 ± 0.37% | Organ-to-brain weight ratio, Kidney [3]: 79.14 ± 3.61% | Organ-to-brain weight ratio, Spleen [3]: 33.29 ± 3.96% | Organ-to-brain weight ratio, Thymus [3]: 19.90 ± 2.88% | Terminal BW [3]: 217.8 ± 15.0 g | Organ weight, Brain [4]: 1.990 ± 0.086 g | Organ weight, Kidney [4]: 1.567 ± 0.165 g | Organ weight, Spleen [4]: 0.574 ± 0.056 g | Organ weight, Thymus [4]: 0.297 ± 0.056 g | Organ-to-body weight ratio, Brain [4]: 0.802 ± 0.031% | Organ-to-body weight ratio, Kidney [4]: 0.630 ± 0.037% | Organ-to-body weight ratio, Spleen [4]: 0.231 ± 0.016% | Organ-to-body weight ratio, Thymus [4]: 0.120 ± 0.023% | Organ-to-brain weight ratio, Adrenal gland [4]: 2.68 ± 0.38% | Organ-to-brain weight ratio, Kidney [4]: 78.65 ± 6.18% | Organ-to-brain weight ratio, Spleen [4]: 28.83 ± 2.34% | Organ-to-brain weight ratio, Thymus [4]: 14.89 ± 2.48% | Terminal BW [4]: 248.4 ± 12.5 g | Organ weight, Brain [5]: 1.958 ± 0.105 g | Organ weight, Kidney [5]: 1.549 ± 0.122 g | Organ weight, Spleen [5]: 0.616 ± 0.144 g | Organ weight, Thymus [5]: 0.339 ± 0.075 g | Organ-to-body weight ratio, Brain [5]: 0.943 ± 0.055% | Organ-to-body weight ratio, Kidney [5]: 0.746 ± 0.049% | Organ-to-body weight ratio, Spleen [5]: 0.294 ± 0.049% | Organ-to-body weight ratio, Thymus [5]: 0.162 ± 0.031% | Organ-to-brain weight ratio, Adrenal gland [5]: 2.88 ± 0.24% | Organ-to-brain weight ratio, Kidney [5]: 79.23 ± 6.43% | Organ-to-brain weight ratio, Spleen [5]: 31.37 ± 6.57% | Organ-to-brain weight ratio, Thymus [5]: 17.23 ± 3.33% | Terminal BW [5]: 208.0 ± 14.6 g | Organ weight, Brain [6]: 2.075 ± 0.093 g | Organ weight, Kidney [6]: 1.554 ± 0.133 g | Organ weight, Spleen [6]: 0.502 ± 0.064 g | Organ weight, Thymus [6]: 0.331 ± 0.135 g | Organ-to-body weight ratio, Brain [6]: 0.856 ± 0.093% | Organ-to-body weight ratio, Kidney [6]: 0.637 ± 0.024% | Organ-to-body weight ratio, Spleen [6]: 0.206 ± 0.027% | Organ-to-body weight ratio, Thymus [6]: 0.135 ± 0.047% | Organ-to-brain weight ratio, Adrenal gland [6]: 2.71 ± 0.42% | Organ-to-brain weight ratio, Kidney [6]: 75.09 ± 8.25% | Organ-to-brain weight ratio, Spleen [6]: 24.11 ± 2.01% | Organ-to-brain weight ratio, Thymus [6]: 16.14 ± 7.16% | Terminal BW [6]: 244.2 ± 24.2 g | Organ weight, Adrenal gland [7]: 0.052 ± 0.011 g | Organ weight, Brain [7]: 2.094 ± 0.050 g | Organ weight, Epididymis [7]: 0.977 ± 0.089 g | Organ weight, Heart [7]: 1.289 ± 0.102 g | Organ weight, Liver [7]: 8.125 ± 0.587 g | Organ weight, Spleen [7]: 0.741 ± 0.128 g | Organ weight, Thymus [7]: 0.477 ± 0.062 g | Organ-to-body weight ratio, Adrenal gland [7]: 0.016 ± 0.003% | Organ-to-body weight ratio, Brain [7]: 0.650 ± 0.035% | Organ-to-body weight ratio, Epididymis [7]: 0.303 ± 0.028% | Organ-to-body weight ratio, Heart [7]: 0.399 ± 0.028 % | Organ-to-body weight ratio, Liver [7]: 2.516 ± 0.108% | Organ-to-body weight ratio, Spleen [7]: 0.229 ± 0.030% | Organ-to-body weight ratio, Thymus [7]: 0.147 ± 0.016% | Organ-to-brain weight ratio, Adrenal gland [7]: 2.50 ± 0.58% | Organ-to-brain weight ratio, Epididymis [7]: 46.67 ± 4.12% | Organ-to-brain weight ratio, Heart [7]: 61.61 ± 5.76% | Organ-to-brain weight ratio, Liver [7]: 388.28 ± 30.51% | Organ-to-brain weight ratio, Spleen [7]: 35.42 ± 6.22% | Organ-to-brain weight ratio, Thymus [7]: 22.74 ± 2.77% | Terminal BW [7]: 322.9 ± 16.9 g | Organ weight, Adrenal gland [8]: 0.057 ± 0.008 g | Organ weight, Brain [8]: 2.262 ± 0.071 g | Organ weight, Epididymis [8]: 1.432 ± 0.140 g
